Assay results: PMC8286831, “Identifying SARS-CoV-2 antiviral compounds by screening for small molecule inhibitors of nsp13 helicase” (Biochemical Journal, 2021)
Read-outs that look alike come from different tables or passages of the source.

Key:
[1] = target: T1, SARS-CoV-2 RdRp holoenzyme (Severe acute respiratory syndrome coronavirus 2, UniProt P0DTD1); assay: FRET-based RdRp strand displacement assay; format: biochemical
T1 construct: (Sf nsp12-3F/7L8 preincubated with Sf 7H8 at a 1:3 ratio); 3F (3xFlag) (C); made in house; host or cells: 'Sf', read as Spodoptera frugiperda insect cells (my inference from the prefix); details are in Bertolin et al

[2] = target: SARS-CoV-2 nsp13 helicase (Severe acute respiratory syndrome coronavirus 2, UniProt P0DTD1); assay: biochemical; format: biochemical; details: for nsp13 inhibition and detergent sensitivity: presence or absence of non-ionic detergent
[3] = RNA (RdRp substrate), 0.3 mM each NTP, 0.02% Tween-20 in RdRp assay buffer, read-out: IC50 RdRp
[4] = IC50 0.02% Tween-20 + (presence)
[5] = IC50 0.02% Tween-20 − (absence)
[6] = RNA (nsp13 substrate), 0.3 mM ATP, 0.02% Tween-20 in RdRp assay buffer, read-out: IC50 nsp13
[7] = RNA (RdRp substrate), 0.3 mM each NTP, 0.02% Tween-20 in RdRp assay buffer
[8] = RNA (nsp13 substrate), 0.3 mM ATP, 0.02% Tween-20 in RdRp assay buffer
[9] = read-out: IC50 + 0.02% Tween-20

CC(C)(Sc1ccc(CCN(CCCCC2CCCCC2)C(=O)NC2CCCCC2)cc1)C(=O)O [GW7647]
IC50 [1, 3]: 32 µM | IC50 [2, 4]: 25 µM | IC50 [2, 5]: 2.3 µM | IC50 ([2]; IC50 + 0.02% Tween-20): 27 µM | IC50 ([2]; IC50 No detergent): 5.9 µM | IC50 [2, 6]: 39 µM

Cc1cc2c(C(C)C)c(O)c(O)c(C=O)c2c(O)c1-c1c(C)cc2c(C(C)C)c(O)c(O)c(C=O)c2c1O [Gossypol]
IC50 [1]: 17 µM | IC50 [2, 4]: 31 µM | IC50 [2, 5]: 1.3 µM | IC50 ([2]; IC50 + 0.02% Tween-20): 30 µM | IC50 ([2]; IC50 No detergent): 1.9 µM | IC50 [2, 6]: 26 µM

COc1c2c3c4c(c(OC)c(=O)c5c(O)cc(OC)c(c6c(OC)cc(O)c(c1=O)c63)c54)[C@@H](C(C)=O)[C@@](C)(O)C2 [Hypocrellin A]
IC50 ([2]; IC50 + 0.02% Tween-20): > 250 µM | IC50 ([2]; IC50 No detergent): 12 µM | nsp13 inhibition and detergent sensitivity [2]: clear inhibition only in the absence of detergent

COc1cc(C(=O)O)ccc1NC(=O)[C@@H]1N[C@@H](CC(C)(C)C)[C@](C#N)(c2ccc(Cl)cc2F)[C@H]1c1cccc(Cl)c1F [Idasanutlin]
IC50 [1, 3]: 36 µM | IC50 [2, 4]: 11 µM | IC50 [2, 5]: 2.3 µM | IC50 [2, 6]: 19 µM

Nc1nc2c(c(=O)[nH]1)N(C=O)C(CNc1ccc(C(=O)N[C@@H](CCC(=O)O)C(=O)O)cc1)CN2 (some centres unmarked) [Leucovorin Calcium]
IC50 RdRp [1, 7]: No inhibition | IC50 ([2]; IC50 + 0.02% Tween-20): > 250 µM | IC50 ([2]; IC50 No detergent): > 250 µM | IC50 nsp13 [2, 8]: No inhibition

CS(=O)(=O)c1cccc(C[C@H](NC(=O)c2c(Cl)cc3c(c2Cl)CCN(C(=O)c2ccc4ccoc4c2)C3)C(=O)O)c1 [Lifitegrast]
IC50 + 0.02% Tween-20 [2]: No inhibition | IC50 No detergent [2]: No inhibition

Cc1ccc(F)c(NC(=O)Nc2ccc(-c3cccc4[nH]nc(N)c34)cc2)c1 [Linifanib/ABT-869, Linifanib]
IC50 RdRp [1, 7]: No inhibition | IC50 ([2]; IC50 + 0.02% Tween-20): 230 µM | IC50 ([2]; IC50 No detergent): 26 µM | IC50 nsp13 [2, 8]: No inhibition

CCCCC/C=C\C/C=C\CCCCCCCC(=O)O [Linoleic acid]
IC50 RdRp [1, 7]: No inhibition | IC50 [2, 4]: 36 µM | IC50 [2, 5]: 4.3 µM | IC50 ([2]; IC50 + 0.02% Tween-20): 38 µM | IC50 ([2]; IC50 No detergent): 11 µM | IC50 nsp13 [2, 8]: No inhibition | nsp13 inhibition and detergent sensitivity [2]: strong sensitivity to detergents

O=C1c2c(O)ccc(O)c2C(=O)c2c(NCCNCCO)ccc(NCCNCCO)c21 [Mitoxantrone]
IC50 + 0.02% Tween-20 [2]: Quenching | IC50 No detergent [2]: Quenching

CC1(C)CCC(c2ccc(Cl)cc2)=C(CN2CCN(c3ccc(C(=O)NS(=O)(=O)c4ccc(N[C@H](CCN5CCOCC5)CSc5ccccc5)c(S(=O)(=O)C(F)(F)F)c4)cc3)CC2)C1 [Navitoclax]
IC50 [1, 3]: 92 µM | IC50 [2, 4]: > 250 µM | IC50 [2, 5]: 0.74 µM | IC50 ([2]; IC50 + 0.01% Triton X-100): 7.3 µM | IC50 ([2]; IC50 + 0.02% Tween-20): > 250 µM | IC50 ([2]; IC50 -Triton X-100): 2.2 µM | IC50 ([2]; IC50 No detergent): 1.2 µM | IC50 [2, 6]: > 100 µM | nsp13 inhibition and detergent sensitivity [2]: strong sensitivity to detergents

CCCc1c2oc(C(=O)O)cc(=O)c2cc2c(=O)cc(C(=O)O)n(CC)c12 [Nedocromil]
IC50 + 0.02% Tween-20 [2]: No inhibition | IC50 No detergent [2]: No inhibition

CCCCCCCC/C=C\CCCCCCCC(=O)O [Oleic acid]
IC50 RdRp [1, 7]: No inhibition | IC50 [2, 4]: 117 µM | IC50 [2, 5]: 14 µM | IC50 ([2]; IC50 + 0.02% Tween-20): 58 µM | IC50 ([2]; IC50 No detergent): 6.8 µM | IC50 nsp13 [2, 8]: No inhibition

O=C(N[C@H]1CCS[C@H]2CCC[C@@H](C(=O)O)N2C1=O)[C@@H](S)Cc1ccccc1 [Omapatrilat]
IC50 + 0.02% Tween-20 [2]: No inhibition | IC50 ([2]; IC50 No detergent): > 250 µM

COc1cc(C(N)=O)ccc1NC(=O)[C@@H]1N[C@@H](CC(C)(C)C)[C@@]2(C(=O)Nc3cc(Cl)ccc32)[C@H]1c1cccc(Cl)c1F [RO8994]
IC50 RdRp [1, 7]: No inhibition | IC50 nsp13 [2]: No inhibition | IC50 [2, 9]: > 250 µM | IC50 ([2]; read-out: IC50 No detergent): 2.9 µM

COc1cccc(NC(=O)/C=C/c2ccc(Cl)cc2)c1 [SB-366791]
IC50 RdRp [1, 7]: No inhibition | IC50 nsp13 [2, 8]: No inhibition | IC50 [2, 9]: > 250 µM | IC50 ([2]; read-out: IC50 No detergent): > 250 µM

CN1Cc2sccc2C(c2ccc(O)c(O)c2)C1 (centres unmarked) [SKF 89145]
IC50 + 0.02% Tween-20 [2]: No inhibition | IC50 No detergent [2]: No inhibition

Cc1cc(OCCCS(C)(=O)=O)cc(C)c1-c1cccc(COc2ccc3c(c2)OC[C@H]3CC(=O)O)c1 [TAK875, Fasiglifam]
IC50 ([2]; IC50 + 0.02% Tween-20): 72 µM | IC50 ([2]; IC50 No detergent): 19 µM | nsp13 inhibition and detergent sensitivity [2]: clear inhibition only in the absence of detergent

O=C1CC(=O)c2c(Cl)c(Cl)c(Cl)c(Cl)c21 [TCID]
IC50 [1, 3]: 35 µM | IC50 ([2]; read-out: IC50 0.02% Tween-20 + (presence)): 15 µM | IC50 ([2]; read-out: IC50 0.02% Tween-20 − (absence)): 1.9 µM | IC50 [2, 9]: 24 µM | IC50 ([2]; read-out: IC50 No detergent): 8.1 µM | IC50 ([2]; read-out: IC50 nsp13): 21 µM

CC(C)c1ccccc1Cc1cc(C(=O)Nc2ccc(S(=O)(=O)c3ccccc3C(C)(C)C)cc2)c(O)c(O)c1O [TW-37]
IC50 [1, 3]: 27 µM | IC50 [2, 9]: 109 µM | IC50 ([2]; read-out: IC50 No detergent): 2.8 µM | IC50 ([2]; read-out: IC50 nsp13): 39 µM
